Results from ChEMBL document CHEMBL4304758, “Development of Peptide-Based Sirtuin Defatty-Acylase Inhibitors Identified by the Fluorescence Probe, SFP3, That Can Efficiently Measure Defatty-Acylase Activity of Sirtuin” (J Med Chem, 2019).
Structures can show the parent of a compound that is named as a salt. Residues, ends and D or L forms follow the SMILES beside them. *: point of attachment. Tfa = O=C(C(F)(F)F)*

Legend:
[1] = molecular target: T1, NAD-dependent protein deacetylase sirtuin-3, mitochondrial (Homo sapiens, UniProt Q9NTG7); assay: Inhibition of recombinant human SIRT3 (118 to 399 residues) defatty-acylase activity expressed in Escherichia coli using SFP3 as substrate measured at 5 mins interval for 60 mins in presence of NAD+ by fluorescence assay
T1 sequence (Q9NTG7 whole entry): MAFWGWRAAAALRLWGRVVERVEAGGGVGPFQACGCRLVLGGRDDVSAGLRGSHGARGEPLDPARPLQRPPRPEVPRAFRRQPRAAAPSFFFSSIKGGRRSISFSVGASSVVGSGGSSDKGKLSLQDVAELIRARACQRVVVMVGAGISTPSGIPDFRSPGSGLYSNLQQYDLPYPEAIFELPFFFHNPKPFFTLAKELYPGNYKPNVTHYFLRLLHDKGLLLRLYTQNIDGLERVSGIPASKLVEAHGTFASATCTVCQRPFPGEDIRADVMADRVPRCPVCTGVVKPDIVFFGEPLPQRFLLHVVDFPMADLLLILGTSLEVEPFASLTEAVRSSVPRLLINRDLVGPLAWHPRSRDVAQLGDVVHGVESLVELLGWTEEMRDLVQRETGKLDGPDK

[2] = molecular target: T2, NAD-dependent protein deacetylase sirtuin-2 (Homo sapiens, UniProt Q8IXJ6); assay: Inhibition of recombinant human SIRT2 demyristoylase activity using p53(Myr)-AMC as substrate measured after 3 hrs in presence of NAD+ and trypsin by fluorescence assay
T2 sequence (Q8IXJ6 whole entry): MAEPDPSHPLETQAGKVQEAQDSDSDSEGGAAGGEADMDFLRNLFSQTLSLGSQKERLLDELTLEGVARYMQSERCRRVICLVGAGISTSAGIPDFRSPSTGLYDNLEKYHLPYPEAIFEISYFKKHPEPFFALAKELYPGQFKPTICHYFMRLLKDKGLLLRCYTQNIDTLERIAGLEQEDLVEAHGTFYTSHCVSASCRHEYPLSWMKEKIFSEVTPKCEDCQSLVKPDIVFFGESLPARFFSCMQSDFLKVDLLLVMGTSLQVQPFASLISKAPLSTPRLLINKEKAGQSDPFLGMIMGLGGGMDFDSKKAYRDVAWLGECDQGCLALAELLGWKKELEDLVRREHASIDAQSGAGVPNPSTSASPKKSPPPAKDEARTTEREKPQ

[3] = molecular target: T2, NAD-dependent protein deacetylase sirtuin-2; assay: Inhibition of recombinant human SIRT2 deacylation activity using Fluor de Lys Sirt2 as substrate measured at 5 mins interval for 30 mins in presence of NAD+ by fluorescence assay
[4] = molecular target: T2, NAD-dependent protein deacetylase sirtuin-2; assay: Inhibition of recombinant human SIRT2 deacylation activity expressed in Escherichia coli Rosetta2 using Fluor-de-Lys-SIRT2 deacetylase substrate measured after 2 hrs by fluorescence assay
[5] = molecular target: T2, NAD-dependent protein deacetylase sirtuin-2; assay: Inhibition of recombinant human SIRT2 defatty-acylase activity using SFP3 as substrate measured at 5 mins interval for 60 mins in presence of NAD+ by fluorescence assay
[6] = molecular target: T3, NAD-dependent protein deacetylase sirtuin-1 (Homo sapiens, UniProt Q96EB6); assay: Inhibition of recombinant human C-terminal His6-tagged SIRT1 (Met1 to Ser747 residues) defatty-acylase activity expressed in Escherichia coli using SFP3 as substrate measured at 5 mins interval for 60 mins in presence of NAD+ by fluorescence assay
T3 sequence (Q96EB6 whole entry): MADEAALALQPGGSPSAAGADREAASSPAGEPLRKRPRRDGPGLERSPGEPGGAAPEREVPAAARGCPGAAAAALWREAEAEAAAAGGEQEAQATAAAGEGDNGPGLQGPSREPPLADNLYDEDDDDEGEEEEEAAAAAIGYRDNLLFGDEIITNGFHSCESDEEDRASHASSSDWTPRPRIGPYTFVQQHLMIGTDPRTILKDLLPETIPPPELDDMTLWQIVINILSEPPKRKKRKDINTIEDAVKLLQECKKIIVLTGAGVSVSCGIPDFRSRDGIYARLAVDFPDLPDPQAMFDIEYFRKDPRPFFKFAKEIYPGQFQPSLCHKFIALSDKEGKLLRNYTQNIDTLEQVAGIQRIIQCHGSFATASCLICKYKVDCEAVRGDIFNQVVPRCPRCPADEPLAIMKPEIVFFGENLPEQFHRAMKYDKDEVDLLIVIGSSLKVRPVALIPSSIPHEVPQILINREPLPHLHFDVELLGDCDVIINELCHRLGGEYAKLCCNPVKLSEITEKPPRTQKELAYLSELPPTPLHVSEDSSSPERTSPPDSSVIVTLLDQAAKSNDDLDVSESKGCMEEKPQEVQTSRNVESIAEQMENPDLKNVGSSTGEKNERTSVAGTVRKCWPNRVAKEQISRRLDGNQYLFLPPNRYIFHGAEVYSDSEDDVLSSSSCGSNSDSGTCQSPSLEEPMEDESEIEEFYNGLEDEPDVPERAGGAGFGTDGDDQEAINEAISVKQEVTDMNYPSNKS

IC50 [1]: 540 nM
IC50 [2]: 1100 nM
IC50 [3]: 67 nM
IC50 [4]: 31 nM
IC50 [5]: 320 nM
IC50 [6]: > 2000 nM
SMILES: CC[C@H](C)[C@H](NC(=O)[C@H](CCCNC(=N)N)NC(C)=O)C(=O)N[C@@H](CCCCNC(=O)C(F)(F)F)C(=O)N[C@@H](CCCNC(=N)N)C(=O)N[C@@H](Cc1ccc(O)cc1)C(N)=O (Ac-RIK(Tfa)RY-NH2)
